Assay results from patent US20040185558A1, “Method for culturing brain tissue in three dimensions” (priority 2003, published 2004).

Tested on: hippocampal tissue grown under SMC
Assay: field EPSP evoked by electrical stimulation in hippocampal tissue cultured 10 days under simulated microgravity conditions
Assay type: cell-based, Sprauge-Dawley rats
Excerpt: In order to determine whether hippocampal tissue grown under SMC is able to generate electrical signals, hippocampal tissue grown under SMC for 10 days as described was electrically stimulated and field excitatory postsynaptic potential (EPSP) recorded. […] One important characteristic of the response is the presence of paired-pulse facilitation (PPF) (FIGS. 3A and 3B). PDF have been described and characterized in acute slices from the hippocampus and are an example of frequency-dependent short-term plasticity of excitatory synapses. This phenomenon is accounted for by the residual calcium hypothesis, according to which the small fraction of calcium entering the terminal during the first spike increases the probability of transmitter release to a second action potential (Zucker, 1989). […]
Sprauge-Dawley rats (7-9 days old) are quickly decapitated and the brain is rapidly removed and placed in ice-cold Gey's solution (g/L): NaCl (7), KCl (0.37), MgSO4-7H2O (0.06), MgCl2-6H2O (0.21), KH2PO4 (0.03), Na2HPO4-7H2O (0.23), Glucose (1), CaCl2-2H2O (0.23) and NaHCO3 ([…]). […] The slices will be monitored daily and rotary speed will be adjusted in order to avoid any free falling. […]

| Compound | effect on field EPSP (NMDA subtype glutamate receptor antagonist) (100 μM APV, hippocampal tissue grown under SMC, vs no antagonist) | effect on field EPSP (dependence on voltage gated calcium current) (perfused with 1 mM CoCl2, hippocampal tissue grown under SMC 10 days, reversible after washout) |
| --- | --- | --- |
| NC(CCCP(=O)(O)O)C(=O)O (centres unmarked) [APV, amino-5-phosphonovaleric acid] | partially block | – |
| [Cl][Co][Cl] [CoCl2, cobalt chloride] | – | reversibly blocked |
